From patent US8835112B2, “Cell transdifferentiation into brown adipocytes” (Miami University, priority 2010, dated 2014) come the findings set out here.

The assay relates to HB-EGF and ADAM 12S co-expressing cells. Kind of assay: Inhibition of adipogenesis by KB-R7785 (Oil Red O staining, morphology). Type of assay: cell-based, mouse. The procedure:
Cells were grown in the 60 mm culture dishes (Corning). After reaching a cell confluence of 50-70%, the cells were washed with 1.0 ml of PBS for three times, fixed with 1.0 ml of 10% formalin for 60 minutes at room temperature. Oil Red O stock stain solution was prepared by mixing 0.3 g oil red O in 100 ml of isopropanol overnight at room temperature and filtered by using Whatman #2 filter papers. The formalin was removed and the cells were washed with deionized water. The culture dishes were aspirated and added with 1.0 ml of 60% isopropanol working solution to incubate 5 minutes at room temperature. Oil Red O working solution was prepared by diluting 30 ml of the stock stain with 20 ml of distilled water, filtered with Whatman #1 filter papers into a Coplin jar, and covered with a lid immediately. The 60% working isopropanol was removed and the culture dishes were filled with 1.0 ml working solution of Oil Red O, incubated for 5 minutes at room temperature. The cells were rinsed with deionized water until fluid becomes clear, and counterstained with 1 ml of hematoxylin for 1 minute at room temperature. The hematoxylin was then removed from the wells, and the cells were rinsed with deionized water and imaged under a microscope (Olympus). […]

Turning to `CNC(=O)[C@@H](NC(=O)[C@H](CC(C)C)[C@H](C)C(=O)NO)c1ccccc1` [KB-R7785, [4-(N-hydroxyamino)-2R-isobutyl-3S-methylsuccinyl]-L-phenylglycine-N-methylamide], the “Reversal of brown adipocytes / adipocyte morphology” value (KB-R7785 10 μM, over 4 weeks, mouse fibroblasts stably transfected with ADAM 12S and HB-EGF) was “returned the brown adipocytes to mouse fibroblasts”. Further, the “Oil Red O staining after incubation with inhibitor” value (KB-R7785 20 μM in culture media, 3 weeks incubation, cells positive for Oil Red O before) was “lack Oil Red O staining”.
